As a reminder, the inhibition is the relative decrease from the control value, in per cent.

The text below walks through data of US5877187A, “Benzimidazole derivatives with antihistaminic activity” (Fabrica Espanola de Productos Quimicos y Farmaceuticos S.A. …, priority 1996, dated 1999).

The target of data set [1] is T1, guinea pig ileum H1 -receptor histamine (Cavia porcellus, UniProt P31389).
T1 construct: isolated guinea pig ileum; from tissue; host or cells: isolated guinea pig ileum
The data set can be described thus: Blocking of histamine-induced contractions in the isolated guinea pig ileum. The following applies: calculated, mixed antagonist. Format: cell-based. The source says:
(§1) Compounds of formula I have useful pharmacological properties. In particular, they are potent H1 antihistamines.

The test system of data set [2] is histamine-induced cutaneous capillary permeability. The data set can be described thus: Inhibition of the increment of histamine-induced cutaneous capillary permeability in rats. The data set is classed as in vivo, rat.
Text: as §1

The subject of data set [3] is acetylcholine-induced contractions in isolated guinea pig ileum. The data set can be described thus: Antagonism of acetylcholine-induced contractions in isolated guinea pig ileum. The data set is classed as cell-based. The arrangement: dose or concentration left out as unconfirmed.
The subject of data set [4] is spontaneous motor activity. The data set can be described thus: Spontaneous motor activity of the rat. The following applies: 100 mg/kg p.o. The data set is classed as in vivo.
Data set [5] deals with ECG / QTc interval. The data set can be described thus: ECG and QTc interval in rats after i.v. administration. Format: in vivo, rat. The following applies: 20 mg/kg i.v.

T1 sequence (P31389 whole entry): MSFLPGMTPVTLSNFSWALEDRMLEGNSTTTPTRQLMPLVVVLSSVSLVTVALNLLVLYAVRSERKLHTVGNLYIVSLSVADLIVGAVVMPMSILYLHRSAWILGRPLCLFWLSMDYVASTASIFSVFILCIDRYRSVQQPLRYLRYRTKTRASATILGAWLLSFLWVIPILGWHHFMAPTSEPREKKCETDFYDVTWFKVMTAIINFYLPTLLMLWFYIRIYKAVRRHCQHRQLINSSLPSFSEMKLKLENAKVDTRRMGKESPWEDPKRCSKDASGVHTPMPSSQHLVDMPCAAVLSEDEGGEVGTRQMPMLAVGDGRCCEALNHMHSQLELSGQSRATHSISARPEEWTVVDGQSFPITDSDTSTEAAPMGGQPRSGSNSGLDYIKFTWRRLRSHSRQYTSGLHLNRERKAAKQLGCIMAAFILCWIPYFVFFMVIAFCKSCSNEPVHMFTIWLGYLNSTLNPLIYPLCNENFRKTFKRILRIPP

Turning to `CCOCCn1c(C2CCN(CCc3ccc(C(C)(C)C(=O)O)cc3)CC2)nc2ccccc21` [Ib (R1 =Et), 2-[4-(2-(4-(1-(2-ethoxyethyl)benzimidazole-2-yl)piperidine-1-yl)ethyl)phenyl]-2-methylpropanoic Acid], in data set [1], the “pD2'” value is recorded as 6.50. For the same compound, the Kb in data set [1] (read-out: pA2 (converted)) was 7.94 to 10.5 nM. In data set [2] (5 mg/kg p.o.), the “duration of significant activity in excess of 50%” value is reported as “at least 6 hours”. Moreover, in data set [2] (Rattus norvegicus, po, 5 mg/kg p.o., maintained for at least 6 hours, read-out: activity (inhibition of the increase in capillary permeability)), the inhibition at 5 mg/kg was over 50%. The ED50 in data set [2] (Rattus norvegicus, po, read-out: DE50, inhibition of the increase in capillary permeability) is about 2 mg/kg. Also, the “antagonism of acetylcholine-induced contractions” value in data set [3] is “not able to antagonize significantly”. Besides, the “effect on spontaneous motor activity” value in data set [4] is reported as “does not modify”. In addition, in data set [5], the “increase of the QTc interval” value is on record as “nor does it increase the QTc interval” and the “morphological ECG disturbance” value is on record as “induces no morphological ECG disturbance”.
